Measured values reported in US20070219186A1, “Pyrazolo[1,5-A]pyrimidine derivatives and methods of use thereof” (priority 2006, published 2007).
pIC50: −log10 of the molar value. Where two headings read alike, the source gives them in different places.

Target: T1, human B-Raf (Homo sapiens, UniProt P15056)
T1 construct: Flag; GST; made in house; host or cells: Sf9 insect cells (B-Raf); E. coli (MEK1-GST)
Test: B-Raf Kinase to MEK1 ELISA
Type: biochemical
Conditions: for inhibition at 10 µM: read-out: % Inhib./10 uM
How it was run: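 Read-out is a DELFIA europium signal from phospho-MEK1 (Ser217/221) antibody after capture of GST-MEK1 (50 nM final) on anti-GST plates. Phosphorylation comes from Sf9-expressed Flag/GST human B-Raf (~20 ng) with ATP/MgCl2, 60 min RT, pH 7.2 MOPS.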

[1] = median, cpd concentrations from 10 μM to 30 nM in half log dilutions, read-out: Median IC50

T1 sequence (P15056 whole entry): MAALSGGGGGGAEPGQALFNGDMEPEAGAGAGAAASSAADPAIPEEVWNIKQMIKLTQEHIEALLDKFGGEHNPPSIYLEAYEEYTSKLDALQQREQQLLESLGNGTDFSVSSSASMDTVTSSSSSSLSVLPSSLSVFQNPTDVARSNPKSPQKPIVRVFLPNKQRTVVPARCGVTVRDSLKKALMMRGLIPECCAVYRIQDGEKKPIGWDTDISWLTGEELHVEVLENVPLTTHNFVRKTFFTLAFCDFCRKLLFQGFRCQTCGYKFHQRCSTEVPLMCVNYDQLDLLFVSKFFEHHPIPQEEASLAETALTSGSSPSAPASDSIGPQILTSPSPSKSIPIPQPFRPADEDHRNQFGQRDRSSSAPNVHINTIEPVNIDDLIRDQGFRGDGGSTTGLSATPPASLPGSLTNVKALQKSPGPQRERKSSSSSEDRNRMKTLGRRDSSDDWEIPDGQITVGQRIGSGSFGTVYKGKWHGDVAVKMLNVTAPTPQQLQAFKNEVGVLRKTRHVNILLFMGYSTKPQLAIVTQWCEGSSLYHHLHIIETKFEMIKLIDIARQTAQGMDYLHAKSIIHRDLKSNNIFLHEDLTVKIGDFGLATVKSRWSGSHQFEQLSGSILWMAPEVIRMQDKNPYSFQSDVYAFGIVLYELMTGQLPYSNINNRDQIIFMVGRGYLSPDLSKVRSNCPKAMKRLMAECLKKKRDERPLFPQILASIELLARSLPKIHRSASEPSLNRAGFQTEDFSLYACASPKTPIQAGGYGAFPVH

**Q.** What does the source list for `O=C(Nc1cccc(-c2ccnc3c(C(=O)NCCCn4ccnc4)cnn23)c1)c1cccc(C(F)(F)F)c1` [Example 55, N-[3-(1H-imidazol-1-yl)propyl]-7-(3-{[3-(trifluoromethyl)benzoyl]amino}phenyl)pyrazolo[1,5-a]pyrimidine-3-carboxamide]?
**A.** pIC50 [1]: 5.68; inhibition at 10 µM: 70%

**Q.** With `CCOC(=O)c1cnn2c(-c3cccc(NC(=O)Cc4ccc(Cl)c(Cl)c4)c3)ccnc12` [Example 95, ethyl 7-(3-{[(3,4-dichlorophenyl)acetyl]amino}phenyl)pyrazolo[1,5-a]pyrimidine-3-carboxylate] as the compound, how does the pIC50 [1] read?
**A.** Its pIC50 is less than 5.00.

**Q.** What about the inhibition at 10 µM of the same compound?
**A.** Its inhibition at 10 µM is 39%.

**Q.** How did the pIC50 [1] turn out when `CCOC(=O)c1cnn2c(-c3cccc(NC(=O)Nc4ccc(Cl)cc4C)c3)ccnc12` [Example 36, ethyl 7-[3-({[(4-chloro-2-methylphenyl)amino]carbonyl}amino)phenyl]pyrazolo[1,5-a]pyrimidine-3-carboxylate] was run?
**A.** Its pIC50 is less than 5.00.

**Q.** And the inhibition at 10 µM?
**A.** Its inhibition at 10 µM is 33%.

**Q.** `CN(C)CCNC(=O)c1cnn2c(-c3cccc(NC(=O)c4cccc(C(F)(F)F)c4)c3)ccnc12` [Example 49, N-[2-(dimethylamino)ethyl]-7-(3-{[3-(trifluoromethyl)benzoyl]amino}phenyl)pyrazolo[1,5-a]pyrimidine-3-carboxamide] was tested. Which pIC50 [1] did it give?
**A.** The pIC50 was 5.23.

**Q.** What about the inhibition at 10 µM of the same compound?
**A.** Its inhibition at 10 µM is 62%.

**Q.** `COCC(=O)Nc1ccc(-c2cnn3c(-c4cccc(NC(=O)c5cccc(C(F)(F)F)c5)c4)ccnc23)cc1` [Example 229, N-[3-(3-{4-[(methoxyacetyl)amino]phenyl}pyrazolo[1,5-a]pyrimidin-7-yl)phenyl]-3-(trifluoromethyl)benzamide] was tested. Which pIC50 [1] did it give?
**A.** The pIC50 was 6.93.

**Q.** And the inhibition at 10 µM?
**A.** Its inhibition at 10 µM is 83%.

**Q.** Which results are given for `Cn1c(C(=O)Nc2cccc(-c3ccnc4cc(-c5ccncc5)nn34)c2)cc2ccccc21` [Example 238, 1-methyl-N-[3-(2-pyridin-4-ylpyrazolo[1,5-a]pyrimidin-7-yl)phenyl]-1H-indole-2-carboxamide]?
**A.** pIC50 [1]: < 5.00; inhibition at 10 µM: 50%

**Q.** Which results are given for `O=C(Nc1cccc(-c2ccnc3c(C(=O)OCC(F)(F)F)cnn23)c1)c1cccc(C(F)(F)F)c1` [Example 125, 2,2,2-trifluoroethyl 7-(3-{[3-(trifluoromethyl)benzoyl]amino}phenyl)pyrazolo[1,5-a]pyrimidine-3-carboxylate]?
**A.** pIC50 [1]: 6.05; inhibition at 10 µM: 67%

**Q.** Which results are given for `CCOC(=O)c1cnn2c(-c3cccc(NC(=O)Nc4nc5ccc(Cl)cc5s4)c3)ccnc12` [Example 246, ethyl7-[3-({[(6-chloro-1,3-benzothiazol-2-yl)amino]carbonyl}amino)phenyl]pyrazolo[1,5-a]pyrimidine-3-carboxylate]?
**A.** pIC50 [1]: < 5.00; inhibition at 10 µM: 34%

**Q.** How did the pIC50 [1] turn out when `CCOC(=O)c1cnn2c(-c3cccc(NC(=O)Nc4nc5ccc(OC)cc5s4)c3)ccnc12` [Example 244, ethyl7-[3-({[(6-methoxy-1,3-benzothiazol-2-yl)amino]carbonyl}amino)phenyl]pyrazolo[1,5-a]pyrimidine-3-carboxylate] was run?
**A.** Its pIC50 is less than 5.00.

**Q.** And the inhibition at 10 µM?
**A.** The inhibition at 10 µM was 24%.

**Q.** `O=C(Nc1cccc(-c2ccnc3c(-c4cccnc4)cnn23)c1)c1ccc(Cl)c(C(F)(F)F)c1` [Example 172, 4-chloro-N-[3-(3-pyridin-3-ylpyrazolo[1,5-a]pyrimidin-7-yl)phenyl]-3-(trifluoromethyl)benzamide] was tested. Which pIC50 [1] did it give?
**A.** The pIC50 was 6.00.

**Q.** What about the inhibition at 10 µM of the same compound?
**A.** Its inhibition at 10 µM is 81%.

**Q.** `CCOC(=O)c1cnn2c(-c3cccc(NC(=O)c4cc5ccccc5s4)c3)ccnc12` [Example 5, ethyl 7-{3-[(1-benzothien-2-ylcarbonyl)amino]phenyl}pyrazolo[1,5-a]pyrimidine-3-carboxylate] was tested. Which pIC50 [1] did it give?
**A.** The pIC50 was less than 4.70.

**Q.** And the inhibition at 10 µM?
**A.** Its inhibition at 10 µM is 24%.

**Q.** `CN(C)CCc1ccc(-c2cnn3c(-c4cccc(NC(=O)c5cccc(C(F)(F)F)c5)c4)ccnc23)cc1` [Example 289, N-[3-(3-{4-[2-(dimethylamino)ethyl]phenyl}pyrazolo[1,5-a]pyrimidin-7-yl)phenyl]-3-(trifluoromethyl)benzamide] was tested. Which pIC50 [1] did it give?
**A.** The pIC50 was 7.59.

**Q.** What about the inhibition at 10 µM of the same compound?
**A.** Its inhibition at 10 µM is 86%.

**Q.** How did the pIC50 [1] turn out when `O=C(Nc1cccc(-c2ccnc3c(C(=O)NCc4ccccc4)cnn23)c1)c1cccc(C(F)(F)F)c1` [Example 57, N-benzyl-7-(3-{[3-(trifluoromethyl)benzoyl]amino}phenyl)pyrazolo[1,5-a]pyrimidine-3-carboxamide] was run?
**A.** The pIC50 was 5.79.

**Q.** What about the inhibition at 10 µM of the same compound?
**A.** The inhibition at 10 µM was 51%.

**Q.** `CCOC(=O)c1cnn2c(-c3cccc(NC(=O)Nc4ccc(C(C)C)cc4)c3)ccnc12` [Example 20, ethyl 7-[3-({[(4-isopropylphenyl)amino]carbonyl}amino)phenyl]pyrazolo[1,5-a]pyrimidine-3-carboxylate] was tested. Which pIC50 [1] did it give?
**A.** The pIC50 was less than 5.00.

**Q.** And the inhibition at 10 µM?
**A.** The inhibition at 10 µM was 30%.

**Q.** Which results are given for `O=C(Nc1cccc(-c2ccnc3cc(-c4ccncc4)nn23)c1)c1cc(Cl)ccc1Br` [Example 241, 2-bromo-5-chloro-N-[3-(2-pyridin-4-ylpyrazolo[1,5-a]pyrimidin-7-yl)phenyl]benzamide]?
**A.** pIC50 [1]: < 5.00; inhibition at 10 µM: 34%

**Q.** With `O=C(Nc1cccc(-c2ccnc3cc(-c4ccc(CO)cc4)nn23)c1)c1cccc(C(F)(F)F)c1` [Example 135, N-(3-{2-[4-(hydroxymethyl)phenyl]pyrazolo[1,5-a]pyrimidin-7-yl}phenyl)-3-(trifluoromethyl)benzamide] as the compound, how does the pIC50 [1] read?
**A.** Its pIC50 is less than 5.00.

**Q.** And the inhibition at 10 µM?
**A.** Its inhibition at 10 µM is 32%.

**Q.** What does the source list for `Cc1ccc(C(=O)Nc2cccc(-c3ccnc4c(-c5ccc(N)cc5)cnn34)c2)cc1C(F)(F)F` [Example 180, N-{3-[3-(4-aminophenyl)pyrazolo[1,5-a]pyrimidin-7-yl]phenyl}-4-methyl-3-(trifluoromethyl)benzamide]?
**A.** pIC50: 6.74; inhibition at 10 µM: 95%

**Q.** Which results are given for `CCOC(=O)c1cnn2c(-c3cccc(NC(=O)c4ccc(Cl)s4)c3)ccnc12` [Example 222, ethyl 7-(3-{[(5-chloro-2-thienyl)carbonyl]amino}phenyl)pyrazolo[1,5-a]pyrimidine-3-carboxylate]?
**A.** pIC50 [1]: < 5.00; inhibition at 10 µM: 43%

**Q.** With `CCOC(=O)c1cnn2c(-c3cccc(NC(=O)c4ccc(Br)s4)c3)ccnc12` [Example 223, ethyl7-(3-{[(5-bromo-2-thienyl)carbonyl]amino}phenyl)pyrazolo[1,5-a]pyrimidine-3-carboxylate] as the compound, how does the pIC50 [1] read?
**A.** The pIC50 was less than 5.00.

**Q.** What about the inhibition at 10 µM of the same compound?
**A.** The inhibition at 10 µM was 47%.

**Q.** What does the source list for `O=C(Nc1cccc(-c2ccnc3cc(N4CCOCC4)nn23)c1)c1ccc(Cl)c(C(F)(F)F)c1` [Example 197, 4-chloro-N-[3-(2-morpholin-4-ylpyrazolo[1,5-a]pyrimidin-7-yl)phenyl]-3-(trifluoromethyl)benzamide]?
**A.** pIC50 [1]: 6.70; inhibition at 10 µM: 91%

**Q.** With `Cc1cnc2cc(-c3ccncc3)nn2c1-c1cccc(NC(=O)c2cccc(C(F)(F)F)c2)c1` [Example 177, N-[3-(6-methyl-2-pyridin-4-ylpyrazolo[1,5-a]pyrimidin-7-yl)phenyl]-3-(trifluoromethyl)benzamide] as the compound, how does the pIC50 [1] read?
**A.** The pIC50 was 6.70.

**Q.** And the inhibition at 10 µM?
**A.** The inhibition at 10 µM was 95%.

**Q.** `O=C(Nc1cccc(-c2ccnc3cc(-c4ccnc(NCCN5CCNC5=O)c4)nn23)c1)c1cccc(C(F)(F)F)c1` [Example 268, N-{3-[2-(2-{[2-(2-oxoimidazolidin-1-yl)ethyl]amino}pyridin-4-yl)pyrazolo[1,5-a]pyrimidin-7-yl]phenyl}-3-(trifluoromethyl)benzamide] was tested. Which pIC50 [1] did it give?
**A.** Its pIC50 is 6.96.

**Q.** What about the inhibition at 10 µM of the same compound?
**A.** Its inhibition at 10 µM is 96%.

**Q.** Which results are given for `CN(C)S(=O)(=O)c1ccc(-c2cnn3c(-c4cccc(NC(=O)c5cccc(C(F)(F)F)c5)c4)ccnc23)cc1` [Example 288, N-[3-(3-{4-[(dimethylamino)sulfonyl]phenyl}pyrazolo[1,5-a]pyrimidin-7-yl)phenyl]-3-(trifluoromethyl)benzamide]?
**A.** pIC50 [1]: < 5.00; inhibition at 10 µM: 35%

**Q.** With `Cn1cccc1C(=O)Nc1cccc(-c2ccnc3cc(-c4ccncc4)nn23)c1` [Example 236, 1-methyl-N-[3-(2-pyridin-4-ylpyrazolo[1,5-a]pyrimidin-7-yl)phenyl]-1H-pyrrole-2-carboxamide] as the compound, how does the inhibition at 10 µM read?
**A.** Its inhibition at 10 µM is 50%.

**Q.** `CCOC(=O)c1cnn2c(-c3cccc(NC(=O)c4cc(F)c(Cl)cc4F)c3)ccnc12` [Example 29, ethyl 7-{3-[(4-chloro-2,5-difluorobenzoyl)amino]phenyl}pyrazolo[1,5-a]pyrimidine-3-carboxylate] was tested. Which pIC50 [1] did it give?
**A.** Its pIC50 is less than 5.00.

**Q.** What about the inhibition at 10 µM of the same compound?
**A.** Its inhibition at 10 µM is 0%.

**Q.** How did the pIC50 [1] turn out when `CCOC(=O)c1cnn2c(-c3cccc(NC(=O)Nc4ccc(C(C)=O)cc4)c3)ccnc12` [Example 19, ethyl 7-[3-({[(4-acetylphenyl)amino]carbonyl}amino)phenyl]pyrazolo[1,5-a]pyrimidine-3-carboxylate] was run?
**A.** Its pIC50 is less than 5.00.

**Q.** What about the inhibition at 10 µM of the same compound?
**A.** The inhibition at 10 µM was 0%.

**Q.** Which results are given for `O=C(Nc1cccc(-c2ccnc3cc(-c4ccco4)nn23)c1)c1cccc(C(F)(F)F)c1` [Example 113, N-{3-[2-(2-furyl)pyrazolo[1,5-a]pyrimidin-7-yl]phenyl}-3-(trifluoromethyl)benzamide]?
**A.** pIC50 [1]: < 5.00; inhibition at 10 µM: 45%

**Q.** `CCOC(=O)c1cnn2c(-c3cccc(NC(=O)c4ccc(C)c(C(F)(F)F)c4)c3)ccnc12` [Example 26, ethyl 7-(3-{[4-methyl-3-(trifluoromethyl)benzoyl]amino}phenyl)pyrazolo[1,5-a]pyrimidine-3-carboxylate] was tested. Which pIC50 [1] did it give?
**A.** Its pIC50 is 6.30.

**Q.** And the inhibition at 10 µM (single point assay, 10 uM)?
**A.** The inhibition at 10 µM was 76%.

**Q.** Which results are given for `CN(C)Cc1ccccc1-c1cnn2c(-c3cccc(NC(=O)c4cccc(C(F)(F)F)c4)c3)ccnc12` [Example 272, N-[3-(3-{2-[(dimethylamino)methyl]phenyl}pyrazolo[1,5-a]pyrimidin-7-yl)phenyl]-3-(trifluoromethyl)benzamide]?
**A.** pIC50 [1]: 6.93; inhibition at 10 µM: 92%

**Q.** With `CCOC(=O)c1cnn2c(-c3cccc(NC(=O)c4ccc(C(F)(F)F)cc4)c3)ccnc12` [Example 10, ethyl 7-(3-{[4-(trifluoromethyl)benzoyl]amino}phenyl)pyrazolo[1,5-a]pyrimidine-3-carboxylate] as the compound, how does the pIC50 [1] read?
**A.** The pIC50 was less than 5.00.

**Q.** What about the inhibition at 10 µM of the same compound?
**A.** The inhibition at 10 µM was 27%.
